Test results: paper PMC2266763, “Dimerization of the transmembrane domain of amyloid precursor proteins and familial Alzheimer's disease mutants” (BMC Neuroscience, 2008)
Entries after “also recorded” stand apart in the source; their conditions may differ. Ends that are not written are not given here. Lys‑tag = not defined here

B1: wild-type APP-TM peptide (peptide)
peptide: GAIIGLMVGGVVIATVIVITLVML-{Lys‑tag}
modifications: not fully specified (N-terminus); reading uncertain
notes: amyloid precursor protein (APP), human, residues 700 to 723, contain the TM segment; Two versions were synthesised: Lys-tag-W-(700-723)-Lys-tag (FRET donor) and Lys-tag-E(EDANS)-(700-723)-Lys-tag (FRET acceptor); also called wild-type APP transmembrane domain peptide; source: synthetic peptide (solid-phase synthesis, purified by reverse phase C4-HPLC); not shown: oligo-lysine tag (Lys-tag), …
B2: V717G APP-TM peptide (peptide)
peptide: GAIIGLMVGGVVIATVIGITLVML-{Lys‑tag}
modifications: not fully specified (N-terminus); reading uncertain
notes: amyloid precursor protein (APP), human, residues 700 to 723 with the familial Alzheimer's disease mutation V717G; Two versions (Trp donor, Glu-EDANS acceptor) as for m1; source: synthetic peptide (solid-phase synthesis, purified by reverse phase C4-HPLC); not shown: oligo-lysine tag (Lys-tag), N-terminal, kept; Trp (donor version) or Glu-EDANS (acceptor version), N-terminal, kept; oligo-lysine …
B3: V717F APP-TM peptide (peptide)
peptide: GAIIGLMVGGVVIATVIFITLVML-{Lys‑tag}
modifications: not fully specified (N-terminus); reading uncertain
notes: amyloid precursor protein (APP), human, residues 700 to 723 with the familial Alzheimer's disease mutation V717F; Two versions (Trp donor, Glu-EDANS acceptor) as for m1; Said to be soluble only in the presence of SDS; source: synthetic peptide (solid-phase synthesis, purified by reverse phase C4-HPLC); not shown: oligo-lysine tag (Lys-tag), N-terminal, kept; Trp (donor version) or Glu-EDANS …

Experiments:
wild-type APP-TM peptide [1] = assay: FRET hetero-oligomerization of wild-type and mutant APP-TM peptides; format: binding, human; conditions: Trp-labeled wild-type with EDANS-labeled V717G, constant 1:1 ratio, 20 mM SDS
Protocol: (§1) Mixed peptide-SDS micelles were prepared by the addition of concentrated SDS to peptide solutions, such that the final concentrations were 20 mM SDS, 40 mM Tris, 8 mM Acetate (pH 7.0) and 0 – 90 μM peptide. The samples were sonicated and incubated overnight in the dark at room temperature before making fluorescence measurements.
(§2) Fluorescence measurements were made at room temperature using a PTI QM-1 fluorescence spectrophotometer. A quartz cuvette with a 2 mm excitation pathlength and a 1 cm emission pathlength was used. The excitation wavelength was 285 nm and the bandpass was 4 nm. We obtained a quantitative measure of the degree of peptide oligomerization by integrating the EDANS emission signal from 472–496 nm and dividing this value with the integrated Trp emission signal from 350–375 nm. This ratio of acceptor fluorescence to donor fluorescence is denoted either as Acceptor/Donor ratio or A/D ratio and can be used to compare peptide oligomerization at varying concentrations.

Aβ40 and Aβ42 production = assay: Aβ ELISA immunoassay, HEK293 cells expressing Swedish mutant APP and γ-secretase components; format: cell-based, human; conditions: for Effect on levels of Aβ (Aβ40 and Aβ42): overnight incubation, 0, 20 or 100 μM peptide, conditioned media; for Effect on levels of Aβ (Aβ40 and Aβ42) / Effect on Aβ42/40 ratio: relative to control samples
Protocol: Stably transfected HEK293 cells overexpressing the Swedish double mutant (K670N/M671L) of APP751, presenilin 1, nicastrin, PEN-2 and APH-1 were grown to confluency in DMEM media containing 10% fetal bovine serum. The cells were grown for another 48 hours with the media changed twice at equivalent time intervals. Cells were then incubated overnight in fresh media containing 0, 20 or 100 μM APP-TM peptides. The media was collected and subjected to an immunoassay to determine the Aβ42 and Aβ40 concentrations. The ELISA BioSource immunoassay human β-amyloid 1–40/1–42 colorimetric kit (catalogue number KHB3482/KHB3481) was used and the standard protocol was followed. This sandwich ELISA technique makes use of an immobilized Aβ antibody that binds both Aβ40 and Aβ42 at an N-terminal epitope. The bound Aβ40 and Aβ42 are then detected using a C-terminal antibody specific for either Aβ40 or Aβ42. […] Therefore, this assay is ideally suited to detect any disturbances in the normal processing of endogeneuous full length APP in the presence of APP-TM peptides.

[2] = test system: HEK293 cells stably overexpressing Swedish-mutant APP751 and γ-secretase components; assay: Sulforhodamine B (SRB) cytotoxicity assay; format: cell-based; conditions: SRB assay, 0, 10, 20, and 100 μM peptide, overnight
Protocol: Stably transfected HEK293 cells overexpressing Swedish-mutant APP751 and γ-secretase components were plated at 15,000 cells/well in DMEM media containing 10% fetal bovine serum. The cells were grown for another 48 hours with the media changed twice at equivalent time intervals. Cells were then incubated overnight in fresh media containing 0, 10, 20, and 100 μM APP-TM peptides, and the SRB cytotoxicity assay was performed as previously described.

[3] = test system: APP-TM dimer (self-association); assay: SDS-PAGE oligomeric state; format: binding, human; conditions: 20 mM SDS; for Oligomeric state by SDS-PAGE: 40 mM Tris, 8 mM Acetate (pH 7.0), 5% glycerol, 0 – 25 μM peptide, boiled 5 minutes; for Oligomeric state by SDS-PAGE, concentration range: at different concentrations (0 – 25 μM peptide), pH 7.0
Protocol: Samples contained 20 mM SDS, 40 mM Tris, 8 mM Acetate (pH 7.0), 5% glycerol, and 0 – 25 μM peptide. They were boiled for 5 minutes and subjected to SDS-PAGE using precast 4–12% Nupage gels (Invitrogen) and a standard running buffer. SeeBlue®Plus2 molecular weight markers from Invitrogen were used as standards.

[4] = Solubility of APP-TM peptides; format: physicochemical
[5] = molecular target: APP-TM dimer (self-association); assay: FRET dimer dissociation, APP-TM peptides in SDS micelles; format: binding, human; conditions: for Kd: concentration dependence of FRET (Trp donor / EDANS acceptor, equimolar), 20 mM SDS, 40 mM Tris, 8 mM Acetate (pH 7.0), 0 – 90 μM peptide, overnight, room temperature, average error 3.6%, read-out: Apparent dimer dissociation constant
Protocol: as §1, §2
The apparent dissociation constants were determined using an equation derived from first principles of monomer-dimer equilibrium, where Kd = [A]^2/[A2]. The fluorescence acceptor-donor ratio was plotted against total peptide concentration and fit to the following equation:
[AT]=Kd(Fobs−Fmin/Fmax−Fmin)/2(1−Fobs−Fmin/Fmax−Fmin)^2
Where AT = total APP-TM peptide concentration, F = A/D ratio, fraction dimer = (Fobs-Fmin)/Fmax-Fmin), and % dimer = 100% (fraction dimer). The goodness-of-fit to the model were assessed using the chi-squared test, nonlinear least squares correlation, and examination of residuals.

[6] = test system: APP-TM oligomer (self-association); assay: FRET of APP-TM peptides in DOPG phospholipid vesicles; format: binding, human; conditions: 1:20 peptide:DOPG, 50 mM Tris, 10 mM NaCl (pH 7.0), room temperature, excitation 285 nm
Protocol: DOPG vesicles with incorporated peptides were prepared via sonication of dried lipid films in the presence of peptide solution at a molar ratio of 1 mole of peptide: 20 moles of DOPG as previously described. The samples contained 50 mM Tris, 10 mM NaCl (pH 7.0) as the buffer. […] Purified peptide-incorporated vesicle fractions were used for fluorescence measurements.
as §2

[7] = molecular target: T714I APP-TM peptide (human); assay: FRET or BRET; apparent; dimer to monomers; concentration dependence of the A/D ratio in equimolar mixtures of donor- and acceptor-labelled peptide, 20 mM SDS, 40 mM Tris, 8 mM acetate (pH 7.0), 0 – 90 μM peptide, room temperature
[8] = molecular target: the molecule itself; assay: as above
[9] = molecular target: the molecule itself; assay: SDS-PAGE of the oligomeric state; 20 mM SDS, 40 mM Tris, 8 mM acetate (pH 7.0), 5% glycerol, 0 – 25 μM peptide, boiled 5 minutes, 4–12% Nupage gels
wild-type APP-TM peptide [10] = molecular target: B1; assay: FRET or BRET; mixed: Trp-labelled wild-type with equimolar Edans-labelled mutant peptide in 20 mM SDS; A/D ratio against total peptide concentration (V717G) and at 50 μM total peptide (all mutants); baseline A/D 0.24 for non-interacting peptides; conditions: both partners purified
[11] = molecular target: V717F APP-TM peptide (human); assay: FRET or BRET; apparent; dimer to monomers; concentration dependence of the A/D ratio in equimolar mixtures of donor- and acceptor-labelled peptide, 20 mM SDS, 40 mM Tris, 8 mM acetate (pH 7.0), 0 – 90 μM peptide, room temperature
[12] = 0, 20 or 100 μM peptide, overnight

## Lys-tag(W/EEDANS)GAIIGLMVGGVVIATVIGITLVML Lys-tag [V717G, FAD mutant V717G APP-TM peptide with N- and C-terminal oligo-lysine tags]
wild-type APP-TM peptide [1]
  Total peptide concentration at which A/D ratio shows signs of saturation (hetero-oligomerization): above 50 μM
Aβ40 and Aβ42 production; [12]
  Concentration dependence of Aβ reduction: strong concentration dependence
  Inhibitory effect on Aβ42 versus Aβ40 production: greater inhibitory effect on Aβ42 production (Fig. 7B) than on Aβ40 production
  Suppression of Aβ production relative to wild-type peptide: greater than that of the wild-type peptide; also recorded: significantly greater inhibition of Aβ production than the wild-type peptide
  Effect on Aβ42/40 ratio: reduction in the Aβ42/40 ratio relative to control samples
Aβ40 and Aβ42 production
  Effect on levels of Aβ (Aβ40 and Aβ42): drastic reduction in the levels of Aβ relative to control samples
[2]
  Cell survival / viability: neither peptide caused a reduction in cell survival
[3]
  Oligomeric state by SDS-PAGE: populated both monomer and dimer states
  Oligomeric state by SDS-PAGE, concentration range: formed monomer-dimer mixtures across the same concentration range

## Lys-tag(W/EEDANS)GAIIGLMVGGVVIATVIFITLVML Lys-tag [V717F, FAD mutant V717F APP-TM peptide with N- and C-terminal oligo-lysine tags]
[4]
  Solubility: only soluble in the presence of SDS
[5]
  Kd: 125 µM
[3]
  Oligomeric state by SDS-PAGE: predominantly monomeric

## Lys-tag(W/EEDANS)GAIIGLMVGGVVIATVIVITLVML Lys-tag [wild-type, APP-TM peptide, residues 700 to 723 of human APP, with N- and C-terminal oligo-lysine tags; Trp or Glu-EDANS labeled]
Aβ40 and Aβ42 production; [12]
  Concentration dependence of Aβ reduction: strong concentration dependence
  Inhibitory effect on Aβ42 versus Aβ40 production: greater inhibitory effect on Aβ42 production (Fig. 7B) than on Aβ40 production
  Effect on Aβ42/40 ratio: reduction in the Aβ42/40 ratio relative to control samples
Aβ40 and Aβ42 production
  Effect on levels of Aβ (Aβ40 and Aβ42): drastic reduction in the levels of Aβ relative to control samples
[6]
  FRET signature (donor quenching, acceptor sensitization) in phospholipid bilayers: Typical donor quenching and acceptor sensitization was observed
[2]
  Cell survival / viability: neither peptide caused a reduction in cell survival
[3]
  Oligomeric state by SDS-PAGE: formed stable dimers
  Oligomeric state by SDS-PAGE, concentration range: predominantly dimeric under all concentrations tested

## T714I APP-TM peptide
[7]
  Kd: 395 µM

## Lys-tag(W/EEDANS)GAIIGLMVGGVVIAIVIGITLVML Lys-tag [T714I, FAD mutant T714I APP-TM peptide with N- and C-terminal oligo-lysine tags]
[4]
  Solubility: only soluble in the presence of SDS
[5]; among wild-type and FAD mutants tested, SDS micelles
  Relative dimer stability: least stable dimer
[5]
  Kd: 395 µM
[3]
  Oligomeric state by SDS-PAGE: predominantly monomeric

## B1
[8]
  Kd: 10.3 µM
[9]
  stoichiometry N: 2

## B2
wild-type APP-TM peptide [10]
  binding result: binds
[8]
  Kd: 20.4 µM
[9]
  stoichiometry N: 2

## B3
wild-type APP-TM peptide [10]
  binding result: binds
[11]
  Kd: 125 µM
